Laboratory results taken from ChEMBL document CHEMBL1124518, “Nonsteroidal cardiotonics. 2. The inotropic activity of linear, tricyclic 5-6-5 fused heterocycles” (1989).

Legend:
Assay type in all cases: functional
[1] = organism: Rattus norvegicus; experiment: Effective dose required to produce an increase in dP/dt5 by 1500 mmHg/s in rats
[2] = organism: Felis catus; experiment: Effective dose required to produce an increase in dP/dt5 by 1500 mmHg/s in cats
[3] = tested on: Rattus norvegicus; experiment: Maximum increase in dP/dt when administered intravenously in rats at 3 mg/kg dose.; conditions: route intravenous
[4] = tested on: Rattus norvegicus; experiment: Maximum increase in dP/dt when administered intravenously in rats at 10 mg/kg dose.; parameters: unit not given here; conditions: route intravenous

SMILES	ED1.5 [1]	ED1.5 [2]	Max [3]	Max [4]
COc1ccccc1-c1nc2cc3c(cc2[nH]1)C(C)(C)C(=O)N3	>3 mg/kg	>3 mg/kg		
CC1(C)C(=O)Nc2cc3[nH]c(-c4nc[nH]n4)nc3cc21	0.1 mg/kg	0.02 mg/kg	3.1 mHg s-1	
CC1(C)C(=O)Nc2cc3[nH]c(-c4ccncc4)cc3cc21	0.16 mg/kg	0.11 mg/kg	3.4 mHg s-1	
CC1(C)C(=O)Nc2cc3[nH]c(-c4cnc5ccccc5c4)nc3cc21	>3 mg/kg			
CC1(C)C(=O)Nc2cc3[nH]c(-c4ccc(-n5ccnc5)cc4)nc3cc21	1 mg/kg	0.25 mg/kg		2.8
Cc1nc2cc3nc(O)oc3cc2[nH]1	>3 mg/kg			
CN(C)c1ccc(-c2nc3cc4c(cc3[nH]2)C(C)(C)C(=O)N4)cc1	>3 mg/kg			
Cc1cc2cc3c(cc2[nH]1)NC(=O)C3(C)C	>3 mg/kg			
CC1(C)C(=O)Nc2cc3[nH]c(S)nc3cc21	0.55 mg/kg	0.06 mg/kg	3.5 mHg s-1	
CC1(C)C(=O)Nc2cc3[nH]c(-c4cccs4)nc3cc21	0.12 mg/kg	0.07 mg/kg		
Cn1c(-c2ccncc2)nc2cc3c(cc21)NC(=O)C3(C)C	>3 mg/kg			
C/C=C/c1nc2cc3c(cc2[nH]1)C(C)(C)C(=O)N3	>3 mg/kg			
COc1ccc(-c2nc3cc4c(cc3[nH]2)C(C)(C)C(=O)N4)cc1	>3 mg/kg			
CC1(C)C(=O)Nc2cc3[nH]c(-c4ccc(O)cc4)nc3cc21	>3 mg/kg			
CC1(C)C(=O)Nc2cc3[nH]c(-c4cncnc4)nc3cc21	0.045 mg/kg	0.02 mg/kg	3.1 mHg s-1	
CC1(C)C(=O)Nc2cc3[nH]c(C(F)(F)F)nc3cc21	0.13 mg/kg	0.08 mg/kg	2.3 mHg s-1	
CN1C(=O)C(C)(C)c2cc3nc(-c4ccncc4)n(C)c3cc21	>3 mg/kg			
Cn1c(O)nc2cc3[nH]c(O)nc3cc21	>3 mg/kg			

SMILES	ED1.5 [1]	ED1.5 [2]	Max [3]	Max [4]
CC1(C)C(=O)Nc2cc3nc(O)oc3cc21	>3 mg/kg			
CCCn1c(O)nc2cc3[nH]c(-c4ccncc4)nc3cc21	1 mg/kg		1.6 mHg s-1	
CCn1c(O)nc2cc3[nH]c(-c4ccnnc4)nc3cc21	0.04 mg/kg	0.02 mg/kg	3.2 mHg s-1	
CC1(C)C(=O)Nc2cc3[nH]cnc3cc21	0.19 mg/kg	0.13 mg/kg	3.2 mHg s-1	
Oc1nc2cc3[nH]c(-c4ccncc4)nc3cc2s1	0.2 mg/kg			
C=C(C)c1nc2cc3c(cc2[nH]1)C(C)(C)C(=O)N3	>3 mg/kg			
Oc1nc2cc3[nH]c(-c4ccncc4)nc3cc2[nH]1	>3 mg/kg			
CCCc1nc2cc3nc(O)oc3cc2[nH]1	>3 mg/kg			
COc1cc([S+](C)[O-])ccc1-c1nc2cc3c(cc2[nH]1)C(C)(C)C(=O)N3 (stereo not drawn)	>3 mg/kg			
CC1(C)C(=O)Nc2cc3[nH]c(-c4cc5ccccc5[nH]4)nc3cc21	>3 mg/kg			
CC1(C)C(=O)Nc2cc3[nH]c(C4CCCCC4)nc3cc21	>3 mg/kg			
CC1(C)C(=O)Nc2cc3[nH]c(N)nc3cc21	>3 mg/kg			
COc1cc(S(C)(=O)=O)ccc1-c1nc2cc3c(cc2[nH]1)C(C)(C)C(=O)N3	2 mg/kg		1.8 mHg s-1	
CN1C(=O)C(C)(C)c2cc3[nH]c(-c4ccncc4)nc3cc21	>3 mg/kg			
CC1(C)C(=O)Nc2cc3[nH]c(-c4ccnnc4)cc3cc21		0.01 mg/kg		
CC1(C)C(=O)Nc2cc3[nH]c(-c4ccc(O)nn4)nc3cc21	0.07 mg/kg		3.3 mHg s-1	
CC1(C)C(=O)Nc2cc3[nH]c(-c4ccnc5ccccc45)nc3cc21	2 mg/kg		1.8 mHg s-1	
CC1(C)C(=O)Nc2cc3[nH]c(-c4ccc(-n5ccnc5)cc4)cc3cc21	>3 mg/kg			
